Values quoted from earlier work as cited in paper PMC9187593 (Bioorganic chemistry, 2022).

System: ICR mice
Conditions: positive controls

SMILES | Effect on IP acid-stimulated stretching
COc1ccc2c3c1O[C@H]1C(=O)CC[C@@]4(O)[C@@H](C2)N(C)CC[C@]314 [oxycodone] | dose-dependent and significant decrease in IP acid-stimulated stretching
CC(C(=O)O)c1cccc(C(=O)c2ccccc2)c1 (centres unmarked) [ketoprofen] | dose-dependent and significant decrease in IP acid-stimulated stretching
